For one data set, the system named is HER2+ tumor cells. As to the kind of experiment: Neutral comet assay following 2 Gy, FIG. 8. The class given is cell-based. The source says:
Neutral comet assay to measure DNA double strand breaks following 2 Gy of ionizing radiation (IR). IR increased comet tail length by 2.8 fold comapred to non-irradiated cells.

For the next data set, the system named is OE19 cells (HER2+). As to the kind of experiment: Neutral comet assay. The class given is cell-based, human. As for the experimental part:
(§1) Cells were collected 15 min post IR, suspended in agarose gel and lysed per assay directions (Trevigen). Samples underwent electrophoresis under neutral conditions and were then stained with Sybr Green. Comet tails were counted in multiple fields (>60 cells per sample) and analysed using CometScore (TriTek Corp). Comet tail length was normalized to vehicle-treated, non-irradiated cells.

The test system of data set [1] is CALU3 (EGFR+, HER2+) cells. In words: Neutral comet assay. It is filed as cell-based, human. Particulars: 6 Gy, 2 nM overnight, vs vehicle or 20 nM antibody. As to the method:
as §1

Data set [2] concerns CAL-27 cells. As to the kind of experiment: Clonogenic assay (SF2). It is filed as cell-based, human. The conditions noted are these: drug overnight then 2 Gy, mertansine 5 nM. As for the experimental part:
Following IR, cells were counted, re-plated at varying cell numbers in drug-free media. […] Surviving fraction at 2 Gy (SF2) was calculated as the fraction of cells surviving 2 Gy compared with non-irradiated cells.

The subject of data set [3] is CAL-27 (EGRF+) and OE19 (HER2+) cells. As to the kind of experiment: Alamar Blue cell viability assay. The class given is cell-based, human. Particulars: dose range, 72-96 h.
Data set [4] concerns OE19 cells. As to the kind of experiment: Cell cycle (propidium iodide, flow cytometry). The class given is cell-based, human. The conditions noted are these: treated overnight. As for the experimental part:
(§2) Cells were treated with RNAse, stained with propidium iodide (PI) and analysed by FACS using FloJo software.

In data set [5] the test system is CAL-27 cells. In words: Cell cycle (propidium iodide, flow cytometry). The class given is cell-based, human. The conditions noted are these: treated overnight. As to the method:
as §2

Data set [6] concerns CAL-27 cells. As to the kind of experiment: Phase contrast microscopy. It is filed as cell-based, human. Particulars: 2 nM overnight. The source says: Cells were fixed at indicated times and imaged for Cy5 fluorescence (red). Nuclei stained with DAPI (blue). Scale bar, 10 gm. Representative images of three independent experiments. […] Nuclei stained with DAPI (blue). Scale bar, 10 gm. Representative images of three independent experiments. […] Representative data of two independent experiments. […] Representative images of three independent experiments. Scale bar, 50 gm.

A further data set concerns CAL-27 tumour xenografts. As to the kind of experiment: In vivo tumour xenograft experiments (tumour growth). Also noted: species or system mice. Particulars: non-irradiated tumours; day 0 dose: 0.5 nmol cetuximab or C-MMAE, 2 nmol free MMAE.
For data set [7], the system named is HER2 expressing tumor cells; tumor cell lines. In words: Cell survival by Alamar Blue assay, FIG. 7. It is filed as cell-based. Particulars: across tumor cell lines. The source says:
MMAF potency can be increased and cytotoxicity restricted by antibody conjugation. Cell survival measured by Alamar Blue assay.

For data set [8], the system named is HCT116 cells. In words: Clonogenic assay (SF2). The class given is cell-based, human. The conditions noted are these: 5 nM mertansine overnight then 2 Gy. As for the experimental part: Following IR, cells were counted, re-plated at varying cell numbers in drug-free media. 10-14 days after initial seeding formed colonies were methanol fixed, stained with crystal violet and counted. Surviving fraction at 2 Gy (SF2) was calculated as the fraction of cells surviving 2 Gy compared with non-irradiated cells.

The test system of data set [9] is cell lines irrespective of HER2 expression. As to the kind of experiment: Alamar Blue cell viability assay, cells based on HER2 expression. Particulars: 72-96 h. Also noted: species or system human.
Another data set concerns HER2+ cell lines. In words: Neutral comet assay. The class given is cell-based, human. The conditions noted are these: HER2+ cells; 20 nM overnight, 2 Gy. As to the method:
as §1

The subject of another data set is HER2− cell lines. As to the kind of experiment: Neutral comet assay. The conditions noted are these: HER2− cells; 20 nM overnight, 2 Gy. The class given is cell-based, human. As for the experimental part: as §1
Data set [10] concerns HCT116 cells. In words: Cell cycle (propidium iodide, flow cytometry). It is filed as cell-based, human. The conditions noted are these: treated overnight. As to the method: as §2
Data set [11] concerns CAL-27 cells. As to the method: (§3) Alamar Blue (resazurin) was added to the cells and allowed to incubate for 2-4 h at 37° C. Plates were analysed using a plate reader with fluorescence measured at 560 nm.
The subject of data set [12] is HCT116 cells. The conditions noted are these: HCT116 (HER2−); 72-96 h. As for the experimental part:
as §3

Data set [13] has as its system NCI N87 (gastric cancer) cells. Particulars: NCI N87 (HER2 cell line); 72-96 h. As to the method: as §3
The test system of the next data set is HER2+ tumours. Particulars: combined with IR. As for the experimental part:
CAL-27, OE19, NCI N87 and HCT116 tumour xenografts were established and tumour growth was measured with digital calipers. […] Mice were assigned to indicated groups in ‘Results’. […] For irradiated mice, the tumour-bearing hindlimbs were focally irradiated while the remainder of the mouse was shielded from IR with custom designed lead blocking >95% of the dose as verified by dosimeters placed on the mouse. […] To minimize the number of mice used, tumours were grown in the bilateral flanks.

The subject of the next data set is OE19 tumour xenografts. In words: Immunohistochemistry of tumour xenografts (pHistone H3, cleaved caspase 3). It is filed as in vivo, mice. The conditions noted are these: OE19 tumours harvested 48 h after injection.
The subject of data set [14] is NCI N87 (HER2+) tumour xenografts. In words: In vivo tumour xenograft experiments (tumour growth). More on the design: species or system mice. The conditions noted are these: for Tumour doubling time in days (mean, 95% CI): NCI N87.
Protocol: (§4) CAL-27, OE19, NCI N87 and HCT116 tumour xenografts were established and tumour growth was measured with digital calipers. Tumour volume was measured blindly to treatment group and calculated using the formula as 1/2×length×width. Mice were randomized into groups once the average tumour volume reached >100=113. […] For irradiated mice, the tumour-bearing hindlimbs were focally irradiated while the remainder of the mouse was shielded from IR with custom designed lead blocking >95% of the dose as verified by dosimeters placed on the mouse. […] To prevent unnecessary morbidity, mice were killed if tumour length exceeded 15 mm per protocol Nonlinear regression least squares fit was used to calculate tumour volume doubling times. […] To minimize the number of mice used, tumours were grown in the bilateral flanks.
The test system of data set [15] is OE19 (HER2+) tumour xenografts. The description is as above. The conditions noted are these: for Tumour doubling time in days (mean, 95% CI): OE19. Also noted: species or system mice.
Protocol: as §4
The subject of data set [16] is HCT116 (HER2−) tumour xenografts. The data set is described as above. Also noted: species or system mice. The conditions noted are these: for Tumour doubling time in days (mean, 95% CI): HCT116.
Protocol: as §4
Data set [17] deals with OE19 cells. In words: Alamar Blue cell viability assay. It is filed as cell-based, human. Particulars: OE19 (HER2 cell line); 72-96 h.
Setting [18] is: 0.25 nmol day 0, 2.5 Gy days 1, 2 and 3.
[19] abbreviates: 0.25 nmol i.v. day 0 + IR 2.5 Gy days 1, 2 and 3, extrapolated.

Square brackets hold non-standard residues; d marks the D form. Peptide text beside a SMILES is read from it. * marks the point of attachment. Dolaproine = CO[C@@H]([C@@H]1CCCN1)[C@@H](C)C(=O)O; Dil = CC[C@H](C)[C@H](NC)[C@@H](CC(=O)O)OC; X1 = C[C@@H](N*)[C@@H](O)c1ccccc1; NMeV = CN[C@H](C(=O)O)C(C)C

The source of these data is patent US20180140703A1, “TUMOR RADIOSENSITIZATION WITH ANTIBODY CONJUGATES” (The Regents of the University California, priority 2016, published 2018).

Protocol for CAL-27 tumour xenografts: as §4
Protocol for OE19 tumour xenografts: Tissue sections were cut from blocks of formalin-fixed paraffin embedded xenografts. Four micron thick tissue sections were stained with antibodies to phosphohistone H3 (pH3, Abcam, catalogue number ab32107) and cleaved caspase-3 (C1C3, Cell Signaling Technology, catalogue number 9661) and used at dilutions of 1:300 and 1:900, respectively. Slides were stained on a Ventana Discovery Ultra (Ventana Medical Systems, Tucson, Ariz., USA). Antigen retrieval was performed using CC1 for 24-40 min at 95° C. The primary antibodies were incubated on the sections for 1 h at 37° C. Primary antibodies were visualized used DAB as a chromagen using the UltraMap system (Ventana Medical systems) followed by hematoxylin as a counterstain. Slides were rinsed, dehydrated through alcohol and xylene and coverslipped.
Immununostained slides were scanned using an Axio Scan.Z1 (Zeiss; Oberkochen, Germany). […] Whole-slide images were imported into Definiens Software for quantitative analysis (Definiens; Munich, Germany). […] For analysis of pH3 (a nuclear stain), the total number of nuclei and the total number of nuclei showing DAB staining (pH3 positive cells) were recorded within each ROI. The percent of positive nuclei was then calculated for each sample. For analysis of C1C3 (a cytoplasmic stain), mean DAB chromagen intensity was measured and calculated within the ROI for each sample.

For `CC[C@H](C)[C@@H]([C@@H](CC(=O)N1CCC[C@H]1[C@H](OC)[C@@H](C)C(=O)N[C@H](C)[C@@H](O)c1ccccc1)OC)N(C)C(=O)[C@@H](NC(=O)[C@@H](NC)C(C)C)C(C)C` [MMAE, monomethyl auristatin E] (H-[NMeV]V[Dil][Dolaproine]-X1), in the data set with HER2+ tumor cells, the “IR induced DNA damage (comet tail length)” value is listed as “further increased IR induced DNA damage”. The “comet tail length after irradiation” value is “further increased comet tail length” in the data set on OE19 cells (HER2+) (6 Gy, 2 nM overnight) and “increased comet tail length to a similar degree” in data set [1]. For the same compound, in the data set with CAL-27 cells [2], the “surviving fraction following 2 Gy (SF2)” value is reported as “decreased”. In addition, the “cytotoxicity (cell viability)” value in data set [3] is recorded as “more potent compared with standard cytotoxic chemotherapies”. Further, the “cell cycle profile (G2/M)” value in the data set with OE19 cells [4] and with CAL-27 cells [5] was “cells accumulating in G2/M” in each case. Further, in the data set with CAL-27 cells [6], the cell morphology result is on record as “cells rounding up, indicative of G2/M”. The tumour growth result in the data set with CAL-27 tumour xenografts is “delayed tumour growth”.
Turning to `CC[C@H](C)[C@@H]([C@@H](CC(=O)N1CCC[C@H]1[C@H](OC)[C@@H](C)C(=O)N[C@@H](Cc1ccccc1)C(=O)O)OC)N(C)C(=O)[C@@H](NC(=O)[C@@H](NC)C(C)C)C(C)C` [MMAF] (H-[NMeV]V[Dil][Dolaproine]F-OH), the “IR induced DNA damage (comet tail length)” value with HER2+ tumor cells is on record as “not”. Also, the “potency compared to MMAE” value in data set [7] is on record as “decreased potency compared to MMAE across tumor cell lines”.
As to `COc1cc2cc(c1Cl)N(C)C(=O)C[C@H](OC(=O)[C@H](C)N(C)C(=O)CCS)[C@]1(C)O[C@H]1[C@H](C)[C@@H]1C[C@@](O)(NC(=O)O1)[C@H](OC)/C=C/C=C(\C)C2` [mertansine], the “surviving fraction following 2 Gy (SF2)” value in the data set on HCT116 cells [8] and with CAL-27 cells [2] was “decreased further” throughout. The IC50 in data set [9] (across cell lines, irrespective of HER2 expression) came to 0.01 µM. The “radiosensitization (IR induced DNA double-strand breaks)” value in the data set on HER2+ cell lines was “radiosensitized by increasing IR induced DNA double-strand breaks in both HER2+ and HER2− cell lines”; in the data set with HER2− cell lines, “radiosensitized by increasing IR induced DNA double-strand breaks in both HER2+ and HER2− cell lines”. Moreover, the “cell cycle profile (G2/M)” value was “increased the accumulation of both OE19 and HCT116 cells in the radiosensitive G2/M phase” in the data set on OE19 cells [4]; “increased the accumulation of both OE19 and HCT116 cells in the radiosensitive G2/M phase” in the data set on HCT116 cells [10].
Consider `CC(=O)O[C@H]1C(=O)[C@@]2(C)[C@H]([C@H](OC(=O)c3ccccc3)[C@]3(O)C[C@H](OC(=O)[C@H](O)[C@@H](NC(=O)c4ccccc4)c4ccccc4)C(C)=C1C3(C)C)[C@]1(OC(C)=O)CO[C@@H]1C[C@@H]2O` [paclitaxel], for which the “cytotoxic potency (comparison)” value with CAL-27 cells [11] (HER2− CAL-27 cells) is on record as “more potent than T-DM1”.
With ado-trastuzumab emtansine [T-DM1], the half-inhibitory concentration (IC50) with HCT116 cells [12] is over 0.1 µM; in [13], under 0.001 µM; with CAL-27 cells [11] (CAL-27 (HER2−), 72-96 h) it was over 0.1 µM; in the data set on OE19 cells [17], under 0.001 µM. In addition, the “potency in relation to HER2 expression” value in data set [9] is listed as “directly correlated with HER2 expression”. Besides, the “long term tumour control (survival curve)” value in the data set with HER2+ tumours is on record as “long term tumour control was observed”. In the data set on OE19 cells (HER2+) (doses as low as 2 nM T-DM1), the “radiosensitization (comet tail length)” value was “radiosensitized OE19 cells”. Moreover, the “radiosensitization (IR induced DNA double-strand breaks)” value is recorded as “restricted radiosensitization of HER2+cells” in the data set with HER2+ cell lines and “appear inert to irradiated non-HER2 expressing cells” in the data set with HER2− cell lines. In addition, the “apoptosis (cleaved caspase 3) in tumours” value in the data set with OE19 tumour xenografts is listed as “increased apoptosis”. In addition, the “cells in G2/M as measured by pS10 Histone H3” value with OE19 tumour xenografts is listed as “increased the number of cells in radiosensitive G2/M phase”. The “tumour regression, combined with IR” value in [14] (setting [18]) and in [15] (setting [18]) was “significantly prolonged tumour regression” throughout. Besides, the “Tumour doubling time in days (mean, 95% CI)” value in data set [14] (setting [19]) was 113 (82-179) days; in data set [14] (0.25 nmol i.v. day 0, no IR) it was 23 (21-25) days; in [15] (setting [19]), 66 (33+) days; in [15] (0.25 nmol i.v. day 0, no IR) it was 11 (8-17) days; in data set [16] (0.25 nmol i.v. day 0 + IR 2.5 Gy days 1, 2 and 3) it was 7 (5-12) days; in data set [16] (0.25 nmol i.v. day 0, no IR), 3 (2-5) days. Moreover, the “tumour control combined with IR vs other regimens” value in data set [14] (by day 32) and in data set [15] (by day 22) was “superior to all other treatment” throughout. Besides, the tumour growth entry in [15] (single dose of 1 nmol, compared with control or trastuzumab by day 14) is listed as “equally efficacious in slowing tumour growth”. Further, in [16] (setting [18]), the “benefit of adding drug to IR” value was “showed no benefit of adding T-DM1 to IR”. For the same compound, the “cell cycle profile (G2/M)” value with OE19 cells [4] was “blocked OE19 cells in G2/M”; with HCT116 cells [10], “resembled vehide-treated cells”.
